Assay results reported in US20110009624A9, “BENZIMIDAZOLE COMPOUNDS HAVING GASTRIC ACID SECRETION INHIBITORY ACTION” (priority 2006, published 2011).

Key:
[1] = tested on: gastric acid secretion (histamine-stimulated); assay: Gastric acid secretion inhibitory effects in dogs fitted with chronic gastric fistula tube; assay type: in vivo; conditions: for Gastric acid secretion inhibitory action (%) / Duration of gastric acid secretion inhibitory action (%): dogs with chronic gastric fistula tube, histamine i.v., 1.6 mg/kg i.d.; for Gastric acid secretion inhibitory action (%): day 1 (1 h 40 min to 2 h after administration); for Duration of gastric acid secretion inhibitory action (%): day 2 (24 hours after administration); for gastric acid secretion inhibitory action and duration of gastric acid secretion inhibitory action (assessment in words): on the basis of Table 1
Method: Gastric Acid Secretion Inhibitory Effects in Dogs Fitted with Chronic Gastric Fistula Tube
The gastric acid secretion inhibitory and duration of gastric acid secretion inhibitory action of compounds of the examples were assessed using large dogs fitted with a chronic gastric fistula tube (body weights: approx. 14 to 19 kg). The experiment was conducted for 2 days. On the first day, gastric juices were collected every 20 minutes under conditions of continuous intravenous administration of histamine (50 or 75 μg/kg/h) for 3 hours. A compound of the examples dissolved or suspended in 0.5% methyl cellulose solution was administered via a catheter implanted in the duodenum at the rate of 0.1 ml/kg one hour after the start of histamine administration. The gastric acid secretion inhibitory action of the compound of the examples was assessed over the next two hours. On the second day (24 hours after administration of the compound of the examples), gastric juices were collected every 20 minutes under conditions of continuous intravenous administration of histamine for 2 hours followed by assessment of the duration of gastric acid secretion inhibitory action. After measuring the amount of gastric juices, 0.5 ml of gastric juice were sampled and titrated to neutrality to a pH of 7.0 with 0.04 mol/L aqueous sodium hydroxide solution to measure acid concentration. The amount of gastric acid discharged was determined by multiplying the amount of gastric juice by the acid concentration. Gastric acid secretion inhibitory action was evaluated as the rate of gastric acid secretion inhibition (%) on day 1. Gastric acid secretion inhibitory action (%) was determined according to the formula indicated below:
Gastric acid secretion inhibitory action (%)=(A−B)/A×100
[A]: amount of gastric acid discharged for 20 minutes from 40 minutes to 1 hour after the start of administration of histamine
[B]: amount of gastric acid discharged for 20 minutes from 1 hour 40 minutes to 2 hours after the start of administration of the compound of the examples.
The duration of gastric acid secretion inhibitory action was evaluated as the rate of gastric acid secretion inhibition (%) on day 2. The duration of gastric acid secretion inhibitory action (%) was determined according to the formula indicated below:
Duration of gastric acid secretion inhibitory action (%)=(C−D)/C×100
[C]: Total amount of gastric acid discharged from start of administration of histamine on day 1 to one hour later
[D]: Total amount of gastric acid discharged from start of administration of histamine on day 2 to one hour later.

H+, K+-ATPase = biological target: T1, H+, K+-ATPase (Sus scrofa, UniProt P19156); assay: H+, K+-ATPase activity inhibitory action; assay type: biochemical; conditions: hog gastric mucosa enzyme, preincubation 30 minutes at 37° C., pH 6.1
T1 construct: H^+, K^+-ATPase was prepared from a fundic gland area of fresh hog gastric mucosa; from tissue; host or cells: fundic gland area of fresh hog gastric mucosa
T1 sequence (P19156 whole entry): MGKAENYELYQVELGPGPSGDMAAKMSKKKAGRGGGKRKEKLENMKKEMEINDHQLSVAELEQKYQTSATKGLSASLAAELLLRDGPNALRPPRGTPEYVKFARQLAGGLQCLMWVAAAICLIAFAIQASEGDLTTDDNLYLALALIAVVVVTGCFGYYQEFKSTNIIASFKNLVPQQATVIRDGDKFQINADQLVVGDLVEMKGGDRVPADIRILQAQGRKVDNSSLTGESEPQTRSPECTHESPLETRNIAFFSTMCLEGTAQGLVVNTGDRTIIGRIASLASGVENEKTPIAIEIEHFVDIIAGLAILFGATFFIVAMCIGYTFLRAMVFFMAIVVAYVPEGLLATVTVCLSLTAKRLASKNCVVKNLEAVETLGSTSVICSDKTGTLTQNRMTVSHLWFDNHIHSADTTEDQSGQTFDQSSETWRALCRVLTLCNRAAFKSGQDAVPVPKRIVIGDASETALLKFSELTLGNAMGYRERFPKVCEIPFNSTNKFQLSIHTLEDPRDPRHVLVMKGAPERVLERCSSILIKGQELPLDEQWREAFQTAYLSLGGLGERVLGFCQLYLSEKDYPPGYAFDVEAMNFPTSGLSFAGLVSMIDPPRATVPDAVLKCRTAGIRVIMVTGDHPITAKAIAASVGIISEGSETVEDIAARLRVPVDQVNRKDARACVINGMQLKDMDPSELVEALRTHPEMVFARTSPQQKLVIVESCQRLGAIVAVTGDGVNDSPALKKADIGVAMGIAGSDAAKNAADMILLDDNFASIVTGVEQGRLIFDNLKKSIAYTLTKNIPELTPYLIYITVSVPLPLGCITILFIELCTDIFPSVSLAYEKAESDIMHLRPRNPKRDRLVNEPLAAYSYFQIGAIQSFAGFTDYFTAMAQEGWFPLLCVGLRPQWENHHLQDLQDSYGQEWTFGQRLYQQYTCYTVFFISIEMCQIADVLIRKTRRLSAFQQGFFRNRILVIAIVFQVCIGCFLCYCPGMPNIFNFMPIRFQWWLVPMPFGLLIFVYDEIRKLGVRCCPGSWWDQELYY
T1 sequence (P18434 whole entry partner): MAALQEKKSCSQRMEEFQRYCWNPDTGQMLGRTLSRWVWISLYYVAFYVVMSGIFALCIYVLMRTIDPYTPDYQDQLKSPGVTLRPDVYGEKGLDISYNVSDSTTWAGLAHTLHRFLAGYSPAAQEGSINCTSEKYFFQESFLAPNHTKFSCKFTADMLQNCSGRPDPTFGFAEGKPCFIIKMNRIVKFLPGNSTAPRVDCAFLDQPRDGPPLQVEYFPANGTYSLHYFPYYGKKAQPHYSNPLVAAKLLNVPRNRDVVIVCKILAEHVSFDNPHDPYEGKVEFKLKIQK
Method: H^+, K^+-ATPase Activity Inhibitory Action
H^+, K^+-ATPase was prepared from a fundic gland area of fresh hog gastric mucosa using a variation of the Chang's method [Biochim. Biophys. Acta 464, 313 (1977)].
(1) The sodium salt of 2-[[[4-[3-hydroxy-2-(hydroxymethyl)propoxy]-3,5-dimethylpyridin-2-yl]methyl]sulfinyl]-1H-benzimidazole (Example 15) and (2) 3-[3-hydroxy-2-(hydroxymethyl)propoxy]-2,4-dimethyl-5H-pyrido[1′,2′,4,5][1,2,4]thiadiazino[2,3-a]benzimidazolium hexafluorophosphate (Example 16) were selected for the test compounds, and each was used after dissolving in methanol.
10 μL aliquots of various concentrations of the test compounds or solvent were mixed into 200 μL of 50 μg/mL H^+, K^+-ATPase, 100 μL of 10 mmol/L Pipes-Tris (pH 6.1) and 190 μL of distilled water followed by incubating for 30 minutes at 37° C., adding 150 μL of 100 mmol/L KCl (or distilled water) and 10 μL of 100 μg/mL gramicidin, and further incubating for 10 minutes. […] The amount of inorganic phosphoric acid that was released during this 10 minute period was measured in compliance with the method of Yoda and Hokin (Biochem. Biophys. Res. Commun., 40, 880, 1970). […]
Residual enzyme activity at each concentration of test compound was determined as the amount of H^+, K^+-ATPase activity as a percentage of the H^+, K^+-ATPase activity of a control group (solvent addition). […]

| IC50 (H+, K+-ATPase) [nM] | SMILES | Gastric acid secretion inhibitory action (%) [1] [%] | Duration of gastric acid secretion inhibitory action (%) [1] [%] | gastric acid secretion inhibitory action and duration of gastric acid secretion inhibitory action (assessment in words) [1] |
| --- | --- | --- | --- | --- |
| – | Cc1c(OCCC2COC3(CCOCC3)O2)ccnc1C[S+]([O-])c1nc2ccccc2[n-]1.[Na+] (stereo not shown) [Example 13, 2-[[[3-methyl-4-[2-(1,4,8-trioxaspiro[4.5]deca-2-yl)ethoxy]pyridin-2-yl]methyl]sulfinyl]-1H-benzimidazole] | 100 | 84 | satisfactory |
| – | Cc1c(OCCCC2COC3(CCC3)O2)ccnc1C[S+]([O-])c1nc2ccccc2[n-]1.[Na+] (stereo not shown) [Example 9, 2-[[[4-[3-(5,8-dioxaspiro[3.4]octa-6-yl)propoxy]-3-methylpyridin-2-yl]methyl]sulfinyl]-1H-benzimidazole] | 100 | 89 | satisfactory |
| 220 | Cc1c[n+]2c(c(C)c1OCC(CO)CO)CSn1c-2nc2ccccc21 [Example 16, 3-[3-Hydroxy-2-(hydroxymethyl)propoxy]-2,4-dimethyl-5H-pyrido[1′,2′,4,5][1,2,4]thiadiazino[2,3-a]benzimidazolium hexafluorophosphate] | – | – | – |
